Reference: ChEMBL document CHEMBL4334539, “Discovery of VU6015929: A Selective Discoidin Domain Receptor 1/2 (DDR1/2) Inhibitor to Explore the Role of DDR1 in Antifibrotic Therapy” (ACS Med Chem Lett, 2020)

Legend:
[1] = molecular target: T1, Discoidin domain-containing receptor 2 (Homo sapiens, UniProt Q16832); test: Inhibition of kinase tracer 178 binding to recombinant human His-tagged DDR2 expressed in baculovirus infected Sf9 cells incubated for 1 hr by TR-FRET based LanthaScreen Eu kinase binding assay
T1 sequence (Q16832 whole entry): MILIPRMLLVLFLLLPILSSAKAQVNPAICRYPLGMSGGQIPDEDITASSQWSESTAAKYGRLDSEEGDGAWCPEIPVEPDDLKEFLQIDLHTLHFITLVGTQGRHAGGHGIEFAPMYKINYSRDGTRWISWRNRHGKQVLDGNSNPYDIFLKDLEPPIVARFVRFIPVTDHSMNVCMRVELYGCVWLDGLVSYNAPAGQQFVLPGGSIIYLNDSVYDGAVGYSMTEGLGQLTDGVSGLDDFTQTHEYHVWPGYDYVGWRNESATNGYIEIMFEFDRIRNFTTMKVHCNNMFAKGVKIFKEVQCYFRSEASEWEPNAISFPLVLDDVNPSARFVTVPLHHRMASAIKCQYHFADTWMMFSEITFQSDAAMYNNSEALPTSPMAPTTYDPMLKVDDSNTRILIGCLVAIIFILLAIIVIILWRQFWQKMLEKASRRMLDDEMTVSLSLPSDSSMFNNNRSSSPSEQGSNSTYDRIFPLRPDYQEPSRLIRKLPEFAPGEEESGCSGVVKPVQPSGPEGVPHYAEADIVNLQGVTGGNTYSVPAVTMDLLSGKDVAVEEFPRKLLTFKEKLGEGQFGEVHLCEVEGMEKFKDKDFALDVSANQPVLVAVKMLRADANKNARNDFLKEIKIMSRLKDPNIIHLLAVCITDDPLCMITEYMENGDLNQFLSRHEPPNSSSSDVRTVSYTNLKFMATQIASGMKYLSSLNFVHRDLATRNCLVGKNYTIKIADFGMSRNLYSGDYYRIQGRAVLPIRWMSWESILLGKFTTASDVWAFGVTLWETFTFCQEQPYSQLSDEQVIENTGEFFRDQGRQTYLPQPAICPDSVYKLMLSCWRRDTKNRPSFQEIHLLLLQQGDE

[2] = Fraction unbound in rat plasma incubated for 4 hrs by LC/MS/MS analysis; assay type: ADME, cell-free
[3] = Metabolic stability in rat liver microsomes assessed as […] at 1 uM incubated for 5 mins followed by NADPH addition and measured upto 45 mins by LC/MS/MS analysis; assay type: ADME, Microsome; conditions: read-out: CLH
[4] = Volume of distribution at steady state in Sprague-Dawley rat at 0.5 mg/kg, iv or 3 mg/kg, po measured upto 24 hrs by LC/MS/MS analysis; assay type: ADME, organism-based; conditions: in vivo, read-out: Vdss
[5] = Tmax in Sprague-Dawley rat at 3 mg/kg, po measured upto 24 hrs by LC/MS/MS analysis; assay type: ADME, organism-based; conditions: in vivo
[6] = Oral bioavailability in Sprague-Dawley rat at 3 mg/kg measured upto 24 hrs by LC/MS/MS analysis; assay type: ADME, organism-based; conditions: in vivo
[7] = Cytotoxicity against mesangial cells (unknown origin) expressing Hu-DDR1b assessed as reduction in cell viability at 10 uM incubated for 24 hrs by microscopic analysis; assay type: cell-based
[8] = Half life in Sprague-Dawley rat at 0.5 mg/kg, iv or 3 mg/kg, po measured upto 24 hrs by LC/MS/MS analysis; assay type: ADME, organism-based; conditions: in vivo
[9] = Clearance in Sprague-Dawley rat at 0.5 mg/kg, iv or 3 mg/kg, po measured upto 24 hrs by LC/MS/MS analysis; assay type: ADME, organism-based; conditions: in vivo
[10] = Cytotoxicity against mesangial cells (unknown origin) expressing Hu-DDR1b assessed as reduction in cell viability at 1 uM incubated for 24 hrs by microscopic analysis; assay type: cell-based
[11] = molecular target: Epithelial discoidin domain-containing receptor 1 (Homo sapiens, UniProt Q08345); test: Inhibition of FLAG-tagged DDR1 in human HEK293 cells assessed as reduction in collagen-1-induced DDR1 phosphorylation incubated for 18 hrs by ELISA
Epithelial discoidin domain-containing receptor 1, sequence (Q08345 whole entry, the tested form may be a part): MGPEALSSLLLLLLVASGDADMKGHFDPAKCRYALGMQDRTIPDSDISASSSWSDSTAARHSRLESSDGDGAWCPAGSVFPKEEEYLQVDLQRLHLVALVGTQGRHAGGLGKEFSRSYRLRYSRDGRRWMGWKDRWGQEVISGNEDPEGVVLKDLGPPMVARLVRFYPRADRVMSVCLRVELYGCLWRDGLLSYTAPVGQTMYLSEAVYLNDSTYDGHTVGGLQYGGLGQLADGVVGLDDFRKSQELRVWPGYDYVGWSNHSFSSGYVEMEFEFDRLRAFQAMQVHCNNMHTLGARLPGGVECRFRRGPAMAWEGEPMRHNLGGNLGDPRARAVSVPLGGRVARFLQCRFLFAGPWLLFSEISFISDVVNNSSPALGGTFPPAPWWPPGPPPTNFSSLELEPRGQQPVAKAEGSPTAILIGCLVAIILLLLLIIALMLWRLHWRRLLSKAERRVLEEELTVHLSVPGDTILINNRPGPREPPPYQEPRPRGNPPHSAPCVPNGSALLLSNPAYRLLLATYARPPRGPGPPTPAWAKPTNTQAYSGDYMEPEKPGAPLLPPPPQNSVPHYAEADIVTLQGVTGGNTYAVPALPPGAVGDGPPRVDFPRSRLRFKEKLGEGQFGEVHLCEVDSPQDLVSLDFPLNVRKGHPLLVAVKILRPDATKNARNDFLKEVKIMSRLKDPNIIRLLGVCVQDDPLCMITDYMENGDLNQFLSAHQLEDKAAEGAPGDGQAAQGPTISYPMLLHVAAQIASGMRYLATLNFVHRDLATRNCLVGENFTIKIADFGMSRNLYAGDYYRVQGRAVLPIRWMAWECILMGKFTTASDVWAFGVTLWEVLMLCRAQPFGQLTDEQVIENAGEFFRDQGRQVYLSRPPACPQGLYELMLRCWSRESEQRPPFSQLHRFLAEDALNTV

Row | SMILES | IC50 [1] [nM] | fraction unbound at 4 h [2] | CLint scaled at 1 µM [3] [mL/min/kg] | also measured
1 | COc1cncc(CNc2cc(C(=O)Nc3cccc(C(F)(F)F)c3)ccc2C)c1 | 6.36 |  |  | 
2 | Cc1ccc(C(=O)Nc2cccc(C(F)(F)F)c2)cc1NCc1cncc(-c2ccn(C)n2)c1 | 4.56 | 0.016 | 46 | 
3 | Cc1ccc(C(=O)Nc2cccc(C(F)(F)F)c2)cc1NCc1cncc(-c2ccc[nH]2)c1 | 11 | 0.001 | 62 | 
4 | Cn1ccc(-c2cncc(CNc3cc(C(=O)Nc4cccc(OC(F)(F)F)c4)ccc3F)c2)n1 | 7.39 | 0.089 | 43.2 | Vd [4]: 4.3 L/kg; Tmax [5]: 0.75 h; bioavailability [6]: 12.5%; Activity [7]: Non-Toxic; half-life [8]: 3 h; clearance [9]: 34.2 mL/min/kg
5 | Cc1ccc(C(=O)Nc2cccc(C(F)(F)F)c2)cc1Nc1cncc(C(N)=O)c1 |  | 0.018 | 60 | Activity [10]: Toxic; IC50 [11]: 4.8 nM
6 | Cc1ccc(C(=O)Nc2ccc(C)c(C(F)(F)F)c2)cc1NCc1cncc(-c2ccc[nH]2)c1 | 44.1 |  |  | 
7 | Cc1ccc(C(=O)Nc2cccc(C(F)(F)F)c2)cc1NCc1cncc(C(N)=O)c1 | 4.79 |  |  | 
8 | Cc1ccc(C(=O)Nc2cccc(C(F)(F)F)c2)cc1NCc1cccnc1 | 10.6 |  |  | 
